Eleven compounds from patent publication US9321774B2, “Pyrrolobenzodiazepines” (MEDIMMUNE LIMITED, priority 2012, dated 2016) can be followed below.

Values after ≈ are worked out from the molar mass of the structure shown. Read-outs that look alike come from different tables or passages of the source.

Test in all cases: CLSI broth microplate assay, MIC
Type in all cases: cell-based

The test system of one experiment is E. faecium VRE10. Conditions: Enterococcus faecium.
In another experiment the test system is MRSA strain EMRSA-16. The conditions noted are these: Staphylococcus aureus, read-out: Minimum inhibitory concentration (MIC mg/L) EMRSA-16.
Another experiment has as its system MRSA strain EMRSA-15. Conditions: Staphylococcus aureus, read-out: Minimum inhibitory concentration (MIC mg/L) EMRSA-15.
The test system of another experiment is MRSA strain BB568. Conditions: Staphylococcus aureus, read-out: Minimum inhibitory concentration (MIC mg/L) BB568.
Experiment [1] has as its system S. aureus VISA strain Mu50. Conditions: Staphylococcus aureus, read-out: Minimum inhibitory concentration (MIC mg/L) Mu50.
The next experiment concerns E. faecalis VRE1. The conditions noted are these: Enterococcus faecalis.
In experiment [2] the test system is community-associated MRSA isolate USA300. Conditions: Staphylococcus aureus, read-out: Minimum inhibitory concentration (MIC mg/L) USA300.
The mark [3] stands for this setting: VRE10, read-out: Minimum inhibitory concentration (MIC mg/L) VRE10.
The mark [4] stands for this setting: VRE1, read-out: Minimum inhibitory concentration (MIC mg/L) VRE1.
Setting [5] is: VRE10, Mueller-Hinton broth, 37° C., read-out: Minimum inhibitory concentration (MIC mg/L) VRE10.
The mark [6] stands for this setting: EMRSA-15, Mueller-Hinton broth, 37° C.
Where [7] appears, read: Mu50, Mueller-Hinton broth, 37° C.
[8] abbreviates: EMRSA-16, Mueller-Hinton broth, 37° C.
Setting [9] is: BB568, Mueller-Hinton broth, 37° C.
Where [10] appears, read: VRE1, Mueller-Hinton broth, 37° C., read-out: Minimum inhibitory concentration (MIC mg/L) VRE1.

In the case of `COC(=O)c1ccc(-c2ccc(NC(=O)CCCOc3cc4c(cc3OC)C(=O)N3CCC[C@H]3C=N4)cc2)s1` [Compound 18, (S)-methyl 5-(4-(4-((7-methoxy-5-oxo-2,3,5,11a-tetrahydro-1H-benzo[e]pyrrolo[1,2-a][1,4]diazepin-8-yl)oxy)butanamido)phenyl)thiophene-2-carboxylate, reference compound], the MIC in the experiment on E. faecium VRE10 (setting [3]) is 16 mg/L (≈ 29.2 µM); in the experiment on MRSA strain EMRSA-16, more than 32 mg/L; in the experiment with MRSA strain EMRSA-15 it was more than 32 mg/L; with MRSA strain BB568 it was more than 32 mg/L; in experiment [1], more than 32 mg/L; with E. faecalis VRE1 (setting [4]), more than 32 mg/L. In addition, in experiment [2], the MIC was found to be 32 mg/L (≈ 58.4 µM).

`COc1cc2c(cc1OCCCC(=O)Nc1cc(C(=O)Nc3ccc4occc4c3)n(C)c1)N=C[C@@H]1CCCN1C2=O` [Compound 26, (S)—N-(benzofuran-5-yl)-4-(4-((7-methoxy-5-oxo-2,3,5,11a-tetrahydro-1H-benzo[e]pyrrolo[1,2-a][1,4]diazepin-8-yl)oxy)butanamido)-1-methyl-1H-pyrrole-2-carboxamide]: the MIC is 0.06 mg/L (≈ 0.105 µM) with E. faecium VRE10 (setting [5]); 0.125 mg/L (≈ 0.219 µM) in the experiment with MRSA strain EMRSA-16; 0.06 mg/L (≈ 0.105 µM) in the experiment with MRSA strain EMRSA-15 (setting [6]); 0.125 mg/L (≈ 0.219 µM) in the experiment on MRSA strain BB568; 0.06 mg/L (≈ 0.105 µM) in experiment [1] (setting [7]); 0.06 to 0.125 mg/L (≈ 0.105 to 0.219 µM) in the experiment on E. faecalis VRE1 (setting [4]). The MIC in experiment [2] was 0.125 mg/L (≈ 0.219 µM).

Regarding `COc1cc2c(cc1OCCCC(=O)Nc1cc(C(=O)Nc3ccc4sccc4c3)n(C)c1)N=C[C@@H]1CCCN1C2=O` [Compound 27, (S)—N-(benzo[b]thiophen-5-yl)-4-(4-((7-methoxy-5-oxo-2,3,5,11a-tetrahydro-1H-benzo[e]pyrrolo[1,2-a][1,4]diazepin-8-yl)oxy)butanamido)-1-methyl-1H-pyrrole-2-carboxamide], the MIC is 0.03 mg/L (≈ 0.0512 µM) in the experiment on E. faecium VRE10 (setting [5]); 0.125 mg/L (≈ 0.213 µM) in the experiment with MRSA strain EMRSA-16 (setting [8]); 0.03 mg/L (≈ 0.0512 µM) with MRSA strain EMRSA-15 (setting [6]); 0.125 mg/L (≈ 0.213 µM) in the experiment with MRSA strain BB568 (setting [9]); less than 0.03 mg/L in experiment [1] (setting [7]); 0.125 mg/L (≈ 0.213 µM) in the experiment on E. faecalis VRE1 (setting [10]). The MIC in experiment [2] was in the range of 0.06 to 0.125 mg/L (≈ 0.102 to 0.213 µM).

Regarding `COc1cc2c(cc1OCCCC(=O)Nc1cn(C)c(C(=O)Nc3ccc(OCCN4CCOCC4)cc3)n1)N=C[C@@H]1CCCN1C2=O` [Compound 39, (S)-4-(4-((7-methoxy-5-oxo-2,3,5,11a-tetrahydro-1H-benzo[e]pyrrolo[1,2-a][1,4]diazepin-8-yl)oxy)butanamido)-1-methyl-N-(4-(2-morpholinoethoxyl)phenyl)-1H-imidazole-2-carboxamide], the MIC with E. faecium VRE10 (setting [5]) was 0.5 mg/L (≈ 0.758 µM); with MRSA strain EMRSA-16 (setting [8]), 0.25 mg/L (≈ 0.379 µM); with MRSA strain EMRSA-15 (setting [6]), 0.25 mg/L (≈ 0.379 µM); with MRSA strain BB568 (setting [9]), 0.25 to 0.5 mg/L (≈ 0.379 to 0.758 µM); in experiment [1] (setting [7]) it was 0.125 mg/L (≈ 0.189 µM); in the experiment on E. faecalis VRE1 (setting [10]) it was 0.125 mg/L (≈ 0.189 µM). Also, in experiment [2], the MIC was found to be 0.5 mg/L (≈ 0.758 µM).

With `COc1cc2c(cc1OCCCC(=O)Nc1ccc(-c3cc(C(=O)Nc4ccc(N5CCOCC5)cc4)n(C)c3)cc1)N=C[C@@H]1CCCN1C2=O` [Compound 49, (S)-4-(4-(4-((7-methoxy-5-oxo-2,3,5,11a-tetrahydro-1H-benzo[e]pyrrolo[1,2-a][1,4]diazepin-8-yl)oxy)butanamido)phenyl)-1-methyl-N-(4-morpholinophenyl)-1H-pyrrole-2-carboxamide], the MIC in the experiment on E. faecium VRE10 (setting [3]) was 0.5 to 1 mg/L (≈ 0.724 to 1.45 µM); in the experiment with MRSA strain EMRSA-16 it was 2 mg/L (≈ 2.9 µM); in the experiment with MRSA strain EMRSA-15, 2 mg/L (≈ 2.9 µM); in the experiment on MRSA strain BB568, 2 mg/L (≈ 2.9 µM); in experiment [1], 1 mg/L (≈ 1.45 µM); with E. faecalis VRE1 (setting [4]), 0.5 mg/L (≈ 0.724 µM). For the same compound, the MIC in experiment [2] was found to be 2 mg/L (≈ 2.9 µM).

`COc1cc2c(cc1OCCCC(=O)Nc1ccc(-c3cc(C(=O)Nc4ccc(OCCN5CCOCC5)cc4)n(C)c3)cc1)N=C[C@@H]1CCCN1C2=O` [Compound 51, (S)-4-(4-(4-((7-methoxy-5-oxo-2,3,5,11a-tetrahydro-1H-benzo[e]pyrrolo[1,2-a][1,4]diazepin-8-yl)oxy)butanamido)phenyl)-1-methyl-N-(4-(2-morpholinoethoxyl)phenyl)-1H-pyrrole-2-carboxamide]: the MIC was found to be 1 mg/L (≈ 1.36 µM) in the experiment on E. faecium VRE10 (setting [5]); 2 mg/L (≈ 2.72 µM) in the experiment with MRSA strain EMRSA-16 (setting [8]); 2 mg/L (≈ 2.72 µM) in the experiment with MRSA strain EMRSA-15 (setting [6]); 2 mg/L (≈ 2.72 µM) in the experiment on MRSA strain BB568 (setting [9]); 1 mg/L (≈ 1.36 µM) in experiment [1] (setting [7]); 0.5 mg/L (≈ 0.68 µM) with E. faecalis VRE1 (setting [10]). Moreover, the MIC in experiment [2] stood at 2 mg/L (≈ 2.72 µM).

On to `COc1cc2c(cc1OCCCC(=O)Nc1ccc(-c3cc(C(=O)NCc4ccc(OCCN5CCOCC5)cc4)n(C)c3)cc1)N=C[C@@H]1CCCN1C2=O` [Compound 52, (S)-4-(4-(4-((7-methoxy-5-oxo-2,3,5,11a-tetrahydro-1H-benzo[e]pyrrolo[1,2-a][1,4]diazepin-8-yl)oxy)butanamido)phenyl)-1-methyl-N-(4-(2-morpholinoethoxyl)benzyl)-1H-pyrrole-2-carboxamide], for which the MIC is 1 mg/L (≈ 1.34 µM) in the experiment on E. faecium VRE10 (setting [3]); 1 to 2 mg/L (≈ 1.34 to 2.67 µM) with MRSA strain EMRSA-16; 4 mg/L (≈ 5.34 µM) in the experiment with MRSA strain EMRSA-15; 4 mg/L (≈ 5.34 µM) in the experiment on MRSA strain BB568; 2 mg/L (≈ 2.67 µM) in experiment [1]; 2 mg/L (≈ 2.67 µM) in the experiment on E. faecalis VRE1 (setting [4]). Further, in experiment [2], the MIC is 4 mg/L (≈ 5.34 µM).

`COc1cc2c(cc1OCCCC(=O)Nc1ccc(-c3cc(C(=O)Nc4ccc(N5CCOCC5)nc4)n(C)c3)cc1)N=C[C@@H]1CCCN1C2=O` [Compound 53, (S)-4-(4-(4-((7-methoxy-5-oxo-2,3,5,11a-tetrahydro-1H-benzo[e]pyrrolo[1,2-a][1,4]diazepin-8-yl)oxy)butanamido)phenyl)-1-methyl-N-(6-morpholinopyridin-3-yl)-1H-pyrrole-2-carboxamide]: the MIC in the experiment with E. faecium VRE10 (setting [3]) is 0.5 mg/L (≈ 0.723 µM); in the experiment with MRSA strain EMRSA-16, 2 to 4 mg/L (≈ 2.89 to 5.78 µM); in the experiment with MRSA strain EMRSA-15, 1 mg/L (≈ 1.45 µM); in the experiment on MRSA strain BB568, 4 mg/L (≈ 5.78 µM); in experiment [1], 2 mg/L (≈ 2.89 µM); in the experiment with E. faecalis VRE1 (setting [4]), 1 mg/L (≈ 1.45 µM). Besides, in experiment [2], the MIC came to 4 mg/L (≈ 5.78 µM).

In the case of `COC(=O)c1cc(NC(=O)c2cc(-c3ccc(NC(=O)CCCOc4cc5c(cc4OC)C(=O)N4CCC[C@H]4C=N5)cc3)co2)cn1C` [Compound 54, (S)-methyl 4-(4-(4-(4-((7-methoxy-5-oxo-2,3,5,11a-tetrahydro-1H-benzo[e]pyrrolo[1,2-a][1,4]diazepin-8-yl)oxy)butanamido)phenyl)furan-2-carboxamido)-1-methyl-1H-pyrrole-2-carboxylate], the MIC in the experiment on E. faecium VRE10 (setting [5]) is less than 0.03 mg/L; with MRSA strain EMRSA-16 (setting [8]), 0.06 mg/L (≈ 0.0918 µM); in the experiment on MRSA strain EMRSA-15 (setting [6]) it was less than 0.03 mg/L; in the experiment with MRSA strain BB568 (setting [9]) it was 0.125 mg/L (≈ 0.191 µM); in experiment [1] (setting [7]) it was 0.03 mg/L (≈ 0.0459 µM); with E. faecalis VRE1 (setting [10]), 0.06 mg/L (≈ 0.0918 µM). In addition, the MIC in experiment [2] stood at 0.06 mg/L (≈ 0.0918 µM).

As for `COC(=O)c1cc(-c2ccc(NC(=O)c3cc(-c4ccc(NC(=O)CCCOc5cc6c(cc5OC)C(=O)N5CCC[C@H]5C=N6)cc4)co3)cc2)cn1C` [Compound 56, (S)-methyl 4-(4-(4-(4-(4-((7-methoxy-5-oxo-2,3,5,11a-tetrahydro-1H-benzo[e]pyrrolo[1,2-a][1,4]diazepin-8-yl)oxy)butanamido)phenyl)furan-2-carboxamido)phenyl)-1-methyl-1H-pyrrole-2-carboxylate], the MIC in the experiment with E. faecium VRE10 (setting [3]) amounted to 0.25 mg/L (≈ 0.343 µM); in the experiment with MRSA strain EMRSA-16, 0.5 mg/L (≈ 0.685 µM); in the experiment with MRSA strain EMRSA-15 it was 0.25 mg/L (≈ 0.343 µM); in the experiment with MRSA strain BB568, 0.5 mg/L (≈ 0.685 µM); in experiment [1] it was 0.5 mg/L (≈ 0.685 µM); in the experiment with E. faecalis VRE1 (setting [4]), 0.5 mg/L (≈ 0.685 µM). In addition, the MIC in experiment [2] is 1 mg/L (≈ 1.37 µM).

For `COC(=O)c1cc(NC(=O)c2cc(NC(=O)c3cc(NC(=O)c4cc(NC(=O)c5cc(-c6ccc(NC(=O)CCCOc7cc8c(cc7OC)C(=O)N7CCC[C@H]7C=N8)cc6)cn5C)cn4C)cn3C)cn2C)cn1C` [Compound 59], the MIC in the experiment with E. faecium VRE10 (setting [3]) was 4 mg/L (≈ 3.87 µM); with MRSA strain EMRSA-16, 16 mg/L (≈ 15.5 µM); in the experiment on MRSA strain EMRSA-15 it was 2 mg/L (≈ 1.94 µM); in the experiment with MRSA strain BB568 it was 16 mg/L (≈ 15.5 µM); in experiment [1], 4 mg/L (≈ 3.87 µM); in the experiment on E. faecalis VRE1 (setting [4]), 32 mg/L (≈ 31 µM). For the same compound, the MIC in experiment [2] was in the range of 16 to 32 mg/L (≈ 15.5 to 31 µM).
